According to article PMC7044277 (Nature Communications, 2020):
Where “and” joins values, the source holds several entries; their conditions need not be identical. Equal values may be shown once.

Legend:
5HT2A = 5HT2A (Homo sapiens, UniProt P28223); experiment: β-arrestin2 recruitment (Tango); type: cell-based; conditions: single replicate values
5HT1E = 5HT1E (Homo sapiens, UniProt P28566); experiment: β-arrestin2 recruitment (Tango); type: cell-based; conditions: Fig_S10i
[1] = system: serotonin receptor of Fig_S10i (subtype not given); experiment: β-arrestin2 recruitment (Tango), agonist activity, source data Fig_S10i; type: cell-based, human; conditions: drug alone
[2] = system: serotonin receptor (subtype not given; reference agonist serotonin); experiment: β-arrestin2 recruitment (Tango), agonist activity, source data Fig_S10m; type: cell-based, human; conditions: drug alone
[3] = system: serotonin receptor of Fig_S10g (subtype not named); experiment: β-arrestin2 recruitment (Tango), agonist activity, panel Fig_S10g (serotonin as reference; receptor not given); type: cell-based, human

Sequence of 5HT2A (P28223 whole entry): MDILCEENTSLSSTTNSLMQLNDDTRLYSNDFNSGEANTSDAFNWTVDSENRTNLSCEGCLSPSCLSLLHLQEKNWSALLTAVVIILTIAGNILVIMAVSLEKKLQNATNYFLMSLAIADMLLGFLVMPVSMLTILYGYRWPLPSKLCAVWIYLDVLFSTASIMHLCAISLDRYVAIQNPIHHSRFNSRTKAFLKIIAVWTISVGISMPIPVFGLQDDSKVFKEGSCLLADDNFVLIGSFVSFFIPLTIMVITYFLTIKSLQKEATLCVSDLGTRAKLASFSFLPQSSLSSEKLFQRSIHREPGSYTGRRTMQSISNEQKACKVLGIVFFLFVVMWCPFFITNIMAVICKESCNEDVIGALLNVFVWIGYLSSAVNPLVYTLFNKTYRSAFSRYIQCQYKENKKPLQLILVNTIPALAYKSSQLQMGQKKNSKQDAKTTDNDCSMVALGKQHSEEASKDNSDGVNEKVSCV
Sequence of 5HT1E (P28566 whole entry): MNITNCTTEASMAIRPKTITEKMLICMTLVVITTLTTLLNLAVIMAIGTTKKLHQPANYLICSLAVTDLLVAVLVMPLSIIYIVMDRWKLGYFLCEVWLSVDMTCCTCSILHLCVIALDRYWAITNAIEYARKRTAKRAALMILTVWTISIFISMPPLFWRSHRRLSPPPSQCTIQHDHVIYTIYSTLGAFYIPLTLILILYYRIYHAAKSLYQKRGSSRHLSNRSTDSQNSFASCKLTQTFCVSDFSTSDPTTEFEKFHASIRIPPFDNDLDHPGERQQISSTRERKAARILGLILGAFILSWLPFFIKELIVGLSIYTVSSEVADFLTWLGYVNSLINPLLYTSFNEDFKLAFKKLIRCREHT

**Q.** With `NCCc1c[nH]c2ccc(O)cc12` [serotonin] as the compound, how does the “Fig_S10k dose-response, drug alone (agonist mode), β-arrestin2 recruitment” value (“Fig_S10k dose-response, drug alone” below) (5HT2A; Log[Drug] -7) read?
**A.** The value was 2.15 and 3.679 and 4.811 and -0.4868 and 5.6493 and -0.2054.

**Q.** What about the “Fig_S10k dose-response, drug alone” value (5HT2A; Log[Drug] -7.52) of the same compound?
**A.** The value was -0.7997 and 2.965 and 17.8531 and -0.2054 and -0.763 and 5.3131 and 4.228 and 3.612 and 4.7477.

**Q.** What about the “Fig_S10k dose-response, drug alone” value (5HT2A; Log[Drug] -8) of the same compound?
**A.** Its value is -3.989 and -1.195 and 1.849 and -1.365 and -2.184 and 9.999 and -0.5868 and 4.719.

**Q.** And the “Fig_S10k dose-response, drug alone” value (5HT2A; Log[Drug] -8.52)?
**A.** Its value is -0.2128 and 3.793 and -1.972 and 2.067 and -0.1908 and -0.1834 and -1.527 and -2.08 and -0.286 and -0.3848 and 2.472 and 0.1395.

**Q.** And the “Fig_S10k dose-response, drug alone” value (5HT2A; Log[Drug] -9)?
**A.** Its value is 2.751 and -4.014 and -3.749 and 5.589 and 0.3815 and 2.971 and 0.02275 and 2.73 and 0.208 and 0.558 and 0.5339.

**Q.** And the “Fig_S10k dose-response, drug alone” value (5HT2A; Log[Drug] -9.52)?
**A.** Its value is 1.871 and 1.852 and -0.4489 and -0.2054 and 2.157 and -3.113 and 1.313 and -0.39 and 0.00481 and 0.7312 and 5.479.

**Q.** What about the “Fig_S10k dose-response, drug alone” value (5HT2A; Log[Drug] -10) of the same compound?
**A.** The value was 0.9831 and -1.745 and 1.865 and 2.4358 and -0.7924 and 0.9424 and -2.603 and -1.547 and -0.3848 and 0.8707 and 19.7653.

**Q.** What about the “Fig_S10k dose-response, drug alone” value (5HT2A; Log[Drug] -10.52) of the same compound?
**A.** The value was 1.062 and 0.5626 and 5.943 and 0.675 and 1.189 and 0.1462 and -0.6434 and -0.1876 and 0.3223.

**Q.** And the “Fig_S10k dose-response, drug alone” value (5HT2A; Log[Drug] -11)?
**A.** Its value is -1.391 and 0.03161 and 5.943 and 0.3155 and -1.667 and -1.459 and -0.8081.

**Q.** What about the “Fig_S10k dose-response, drug alone” value (5HT2A; Log[Drug] -11.52) of the same compound?
**A.** Its value is 2.458 and 6.164 and 3.035 and 8.661 and 1.783 and -1.534 and 0.9332.

**Q.** What about the “Fig_S10k dose-response, drug alone” value (5HT2A; Log[Drug] -12) of the same compound?
**A.** Its value is 0.4182 and -4.489 and -0.5209 and 0.1755 and -2.72 and 0.5037 and -1.135 and 0.1924 and 0.9524.

**Q.** What about the “β-arrestin2 recruitment response, agonist mode (single replicate values)” value (from here on “β-arrestin2 recruitment response”) (5HT1E; Log[Drug] -5.52) of the same compound?
**A.** Its value is 108.092 and 78.7034 and 68.0996 and 111.634 and 84.2736 and 51.0795 and 58.1946.

**Q.** What about the “β-arrestin2 recruitment response” value (5HT1E; Log[Drug] -6) of the same compound?
**A.** Its value is 49.7303 and 44.0521 and 69.0964 and 55.0788 and 40.5129 and 63.4469 and 42.3724 and 34.8106.

**Q.** What about the “β-arrestin2 recruitment response” value (5HT1E; Log[Drug] -6.52) of the same compound?
**A.** Its value is 106.224 and 69.1939 and 36.3693 and 81.3314 and 34.6361 and 22.755 and 52.7781 and 32.1336 and 42.1707.

**Q.** What about the “β-arrestin2 recruitment response” value (5HT1E; Log[Drug] -7) of the same compound?
**A.** Its value is 29.3778 and 17.2077 and 21.8054 and 52.9182 and 14.1436 and 22.9549 and 34.3028 and 15.3331 and 17.5442.

**Q.** What about the “β-arrestin2 recruitment response” value (5HT1E; Log[Drug] -7.52) of the same compound?
**A.** Its value is 41.4851 and -6.092 and 11.8176 and 23.4775 and 20.4513 and 6.343 and -1.8765 and -0.1243 and 3.783.

**Q.** What about the “β-arrestin2 recruitment response” value (5HT1E; Log[Drug] -8) of the same compound?
**A.** The value was 21.7287 and -17.9678 and 1.664 and 16.3198 and 16.2023 and 1.767 and -8.704 and -1.0625 and 5.333.

**Q.** And the “β-arrestin2 recruitment response” value (5HT1E; Log[Drug] -8.52)?
**A.** The value was 26.6743 and -0.7908 and -7.94 and 18.4011 and -5.808 and -1.038 and -3.241 and -4.6991 and -0.4891.

**Q.** And the “β-arrestin2 recruitment response” value (5HT1E; Log[Drug] -9)?
**A.** The value was -13.5816 and -3.11 and -9.22 and 15.9426 and -4.472 and -7.47 and -3.2021 and 8.202 and 2.053.

**Q.** What about the “β-arrestin2 recruitment response” value (5HT1E; Log[Drug] -9.52) of the same compound?
**A.** The value was -5.0682 and -13.6215 and 3.951 and -3.374 and 10.856 and -15.4751 and -6.969 and 2.056 and -4.273.

**Q.** And the “β-arrestin2 recruitment response” value (5HT1E; Log[Drug] -10)?
**A.** The value was -0.8245 and 7.169 and 4.501 and 15.8236 and -1.758 and 5.793 and -9.018 and 1.66.

**Q.** And the “β-arrestin2 recruitment response” value (5HT1E; Log[Drug] -10.52)?
**A.** Its value is -1.038 and -22.0751 and -13.8927 and 22.1779 and 3.45 and -2.9 and -5.64 and 8.736.

**Q.** And the “β-arrestin2 recruitment response” value (5HT1E; Log[Drug] -11)?
**A.** The value was -16.6513 and -2.431 and 20.3066 and 6.343 and -2.603 and 3.357.

**Q.** And the “response, single replicates of the concentration-response curve” value ([1]; Log[Drug] -11.52)?
**A.** The value was -4.3954 and -4.987 and -4.556 and 52.5363 and 8.29 and -6.9 and -8.356 and -5.164 and -18.2115.

**Q.** And the “response, single replicates of the concentration-response curve” value ([1]; Log[Drug] -12)?
**A.** Its value is 5.024 and 5.16 and -7.062 and 21.8387 and 17.0887 and 8.533.

**Q.** What about the “response, Fig_S10m, replicate values” ([2]; Log[Drug] -10) of the same compound?
**A.** Its value is 3.734 and -1.123 and -0.8977 and 1.459 and 2.0512 and -0.1515 and 0.5699 and -0.8279 and -0.6726.

**Q.** What about the “response, Fig_S10m, replicate values” ([2]; Log[Drug] -10.52) of the same compound?
**A.** Its value is -0.9054 and 0.7992 and -0.375 and 2.687 and -0.4536 and -1.101 and 0.7884 and 1.319 and 1.427.

**Q.** And the “response, Fig_S10m, replicate values” ([2]; Log[Drug] -11)?
**A.** The value was -0.3557 and -1.309 and -0.2288 and 0.2231 and 0.02755 and -0.2525 and -0.3422 and 5.614 and 6.013.

**Q.** And the “response, Fig_S10m, replicate values” ([2]; Log[Drug] -11.52)?
**A.** The value was -1.125 and -2.817 and 2.535 and -0.5885 and 3.063 and -0.9769 and 1.62 and 5.903 and -1.503.

**Q.** What about the “response, Fig_S10m, replicate values” ([2]; Log[Drug] -12) of the same compound?
**A.** The value was -0.7563 and 2.962 and 1.0473 and 9.322 and 7.524 and 1.413 and -1.187 and 0.2988 and 0.8898.

**Q.** And the “response, single replicate of concentration-response curve” value ([3]; Log[Drug] -8, drug alone)?
**A.** Its value is 25.2624 and 2.418 and -0.9864 and -1.203.

**Q.** And the “response, single replicate of concentration-response curve” value ([3]; Log[Drug] -8.52, drug alone)?
**A.** Its value is 25.8336 and 6.58 and 3.873 and 4.678 and -1.548 and 7.766 and 9.13 and -0.6727 and -11.3553 and -6.415 and -5.731 and -10.9031.

**Q.** And the “response, single replicate of concentration-response curve” value ([3]; Log[Drug] -9, drug alone)?
**A.** Its value is 10.8032 and 1.6368 and -4.3076 and 0.1698 and 3.269 and 3.74 and 1.924 and 0.05671 and -7.517 and 1.634 and 12.5106 and -9.089.

**Q.** What about the “response, single replicate of concentration-response curve” value ([3]; Log[Drug] -9.52, drug alone) of the same compound?
**A.** Its value is 7.867 and 1.536 and -2.919 and -4.095 and 0.1351 and -9.62 and 29.2497 and 12.5325 and 5.929 and 12.1786 and -19.689 and -3.037.

**Q.** What about the “response, single replicate of concentration-response curve” value ([3]; Log[Drug] -10, drug alone) of the same compound?
**A.** Its value is 13.3168 and 3.318 and 3.578 and -7.852 and 7.397 and -7.7805 and -4.613 and 22.4428 and -0.2757 and -9.974 and -10.1372 and -5.303.

**Q.** What about the “response, single replicate of concentration-response curve” value ([3]; Log[Drug] -10.52, drug alone) of the same compound?
**A.** The value was -2.613 and 10.3391 and -3.556 and 0.8157 and -5.415 and -4.823 and 18.6922 and -6.036 and 3.52 and 5.655 and -15.149 and -15.6819.

**Q.** And the “response, single replicate of concentration-response curve” value ([3]; Log[Drug] -11, drug alone)?
**A.** The value was 7.973 and 11.7127 and -1.724 and -0.1913 and 3.65 and 5.648 and -0.1936 and 0.6531 and 0.8995 and 27.444 and 32.0015 and 10.1517.

**Q.** What about the “response, single replicate of concentration-response curve” value ([3]; Log[Drug] -11.52, drug alone) of the same compound?
**A.** The value was 21.6155 and 10.2673 and -4.337 and 2.007 and 0.7121 and -12.0608 and 20.4384 and 18.8721 and -0.9836 and 23.865 and -4.732 and 10.0527.

**Q.** What about the “response, single replicate of concentration-response curve” value ([3]; Log[Drug] -12, drug alone) of the same compound?
**A.** Its value is 27.8009 and 4.255 and 0.08804 and -4.341 and 18.1882 and 2.442 and 25.1178 and 36.1309 and 7.918 and 30.4435 and -6.616 and 17.9883.
